# Assay results taken from paper PMC3983375 (Journal of Medicinal Chemistry, 2014).
# Tests used:
# USP2 = USP2 (Homo sapiens, UniProt O75604); experiment: biochemical
# DEN1 = DEN1 (Homo sapiens, UniProt Q96LD8); experiment: biochemical
# cathepsin K = cathepsin K (Homo sapiens, UniProt P43235); experiment: biochemical
# USP7 = USP7 (Homo sapiens, UniProt Q93009); experiment: biochemical
# UCHL1 = UCHL1 (Homo sapiens, UniProt P09936); experiment: biochemical
# caspase 3 = caspase 3 (Homo sapiens, UniProt P42574); experiment: biochemical
# Chain of caspase 3 (P42574 29-175): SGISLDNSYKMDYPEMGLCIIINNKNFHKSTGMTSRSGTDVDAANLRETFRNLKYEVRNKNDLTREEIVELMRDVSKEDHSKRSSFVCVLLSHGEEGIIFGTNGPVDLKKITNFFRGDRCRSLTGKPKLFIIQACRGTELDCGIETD
# Chain of caspase 3 (P42574 176-277): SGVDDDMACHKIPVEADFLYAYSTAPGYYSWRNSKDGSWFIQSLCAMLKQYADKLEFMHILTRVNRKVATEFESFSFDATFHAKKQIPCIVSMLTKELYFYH
# [1] = mouse
# [2] = test system: SARS-CoV infected Vero E6 cells; type: cell-based
# [3] = test system: SARS-CoV infected Vero E6 cells; conditions: read-out: EC50 (SARS-CoV antiviral); cited from earlier work
# USP20 = USP20 (Homo sapiens, UniProt Q9Y2K6); experiment: biochemical
# Chain of USP20 (Q9Y2K6 whole entry): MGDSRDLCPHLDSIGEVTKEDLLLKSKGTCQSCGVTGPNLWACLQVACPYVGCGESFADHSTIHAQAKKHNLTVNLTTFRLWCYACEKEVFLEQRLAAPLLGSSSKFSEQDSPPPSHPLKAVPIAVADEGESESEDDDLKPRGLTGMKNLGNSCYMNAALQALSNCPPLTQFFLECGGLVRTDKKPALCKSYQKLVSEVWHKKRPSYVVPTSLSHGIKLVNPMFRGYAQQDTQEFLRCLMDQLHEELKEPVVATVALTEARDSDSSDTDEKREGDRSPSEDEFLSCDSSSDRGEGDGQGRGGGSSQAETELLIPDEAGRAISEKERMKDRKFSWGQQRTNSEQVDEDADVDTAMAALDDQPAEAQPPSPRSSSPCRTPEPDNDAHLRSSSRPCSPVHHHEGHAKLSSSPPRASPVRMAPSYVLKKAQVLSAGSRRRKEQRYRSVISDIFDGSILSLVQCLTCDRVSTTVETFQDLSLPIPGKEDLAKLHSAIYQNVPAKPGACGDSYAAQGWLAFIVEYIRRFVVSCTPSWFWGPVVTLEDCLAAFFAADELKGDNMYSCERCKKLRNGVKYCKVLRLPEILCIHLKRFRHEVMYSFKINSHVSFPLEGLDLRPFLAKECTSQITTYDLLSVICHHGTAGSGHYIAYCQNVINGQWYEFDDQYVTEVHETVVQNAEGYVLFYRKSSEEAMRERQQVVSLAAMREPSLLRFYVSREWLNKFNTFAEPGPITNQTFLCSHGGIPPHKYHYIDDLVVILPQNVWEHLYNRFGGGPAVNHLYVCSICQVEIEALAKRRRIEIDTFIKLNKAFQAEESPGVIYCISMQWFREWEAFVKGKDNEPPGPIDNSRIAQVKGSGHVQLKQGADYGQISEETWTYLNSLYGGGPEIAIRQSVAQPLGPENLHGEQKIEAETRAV
# Chain of USP7 (Q93009 whole entry): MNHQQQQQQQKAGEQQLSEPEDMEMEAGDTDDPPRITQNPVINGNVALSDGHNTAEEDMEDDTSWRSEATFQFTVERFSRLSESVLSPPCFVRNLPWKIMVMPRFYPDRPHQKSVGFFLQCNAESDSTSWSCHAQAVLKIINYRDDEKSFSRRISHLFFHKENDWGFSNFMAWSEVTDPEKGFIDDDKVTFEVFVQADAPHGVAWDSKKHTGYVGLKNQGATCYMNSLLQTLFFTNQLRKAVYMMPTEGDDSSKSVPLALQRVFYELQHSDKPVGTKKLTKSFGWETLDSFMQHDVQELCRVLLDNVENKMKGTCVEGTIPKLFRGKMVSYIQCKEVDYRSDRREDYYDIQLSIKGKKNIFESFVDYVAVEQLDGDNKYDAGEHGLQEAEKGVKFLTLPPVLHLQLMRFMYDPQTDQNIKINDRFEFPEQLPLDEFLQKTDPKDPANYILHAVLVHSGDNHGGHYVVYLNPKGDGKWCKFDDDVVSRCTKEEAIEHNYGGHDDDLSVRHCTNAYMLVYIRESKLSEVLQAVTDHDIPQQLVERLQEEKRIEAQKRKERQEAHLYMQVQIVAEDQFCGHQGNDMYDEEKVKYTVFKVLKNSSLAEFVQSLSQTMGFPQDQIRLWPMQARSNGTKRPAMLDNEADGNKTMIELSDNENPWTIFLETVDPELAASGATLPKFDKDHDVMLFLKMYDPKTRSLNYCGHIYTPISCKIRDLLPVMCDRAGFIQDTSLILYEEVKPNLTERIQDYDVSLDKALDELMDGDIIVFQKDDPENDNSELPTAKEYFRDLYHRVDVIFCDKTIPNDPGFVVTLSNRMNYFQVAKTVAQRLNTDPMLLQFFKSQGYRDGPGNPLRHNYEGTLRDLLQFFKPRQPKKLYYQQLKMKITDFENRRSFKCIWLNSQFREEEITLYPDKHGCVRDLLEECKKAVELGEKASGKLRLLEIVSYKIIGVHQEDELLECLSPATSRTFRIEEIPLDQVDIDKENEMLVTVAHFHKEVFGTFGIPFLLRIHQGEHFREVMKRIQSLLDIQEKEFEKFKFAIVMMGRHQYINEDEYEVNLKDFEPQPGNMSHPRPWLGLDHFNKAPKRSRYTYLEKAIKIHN
# Chain of UCHL1 (P09936 whole entry): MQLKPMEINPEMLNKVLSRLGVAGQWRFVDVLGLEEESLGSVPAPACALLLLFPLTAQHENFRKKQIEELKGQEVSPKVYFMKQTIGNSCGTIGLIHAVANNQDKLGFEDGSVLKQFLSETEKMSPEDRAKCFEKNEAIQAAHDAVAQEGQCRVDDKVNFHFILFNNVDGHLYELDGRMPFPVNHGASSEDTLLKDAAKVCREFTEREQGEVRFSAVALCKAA
# Chain of cathepsin K (P43235 115-329): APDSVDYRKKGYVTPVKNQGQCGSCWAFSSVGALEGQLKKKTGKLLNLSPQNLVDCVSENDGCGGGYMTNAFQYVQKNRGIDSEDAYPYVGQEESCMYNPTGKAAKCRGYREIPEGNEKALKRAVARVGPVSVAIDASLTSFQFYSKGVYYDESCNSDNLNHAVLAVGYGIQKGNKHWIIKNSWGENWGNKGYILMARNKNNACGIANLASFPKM
# Chain of DEN1 (Q96LD8 whole entry): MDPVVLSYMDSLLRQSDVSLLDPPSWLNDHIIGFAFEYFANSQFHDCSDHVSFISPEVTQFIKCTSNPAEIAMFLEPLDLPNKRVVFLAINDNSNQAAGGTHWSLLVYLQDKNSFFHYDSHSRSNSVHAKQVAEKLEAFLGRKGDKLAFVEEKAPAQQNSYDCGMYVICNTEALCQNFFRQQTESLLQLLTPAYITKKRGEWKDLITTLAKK
# Chain of USP2 (O75604 whole entry): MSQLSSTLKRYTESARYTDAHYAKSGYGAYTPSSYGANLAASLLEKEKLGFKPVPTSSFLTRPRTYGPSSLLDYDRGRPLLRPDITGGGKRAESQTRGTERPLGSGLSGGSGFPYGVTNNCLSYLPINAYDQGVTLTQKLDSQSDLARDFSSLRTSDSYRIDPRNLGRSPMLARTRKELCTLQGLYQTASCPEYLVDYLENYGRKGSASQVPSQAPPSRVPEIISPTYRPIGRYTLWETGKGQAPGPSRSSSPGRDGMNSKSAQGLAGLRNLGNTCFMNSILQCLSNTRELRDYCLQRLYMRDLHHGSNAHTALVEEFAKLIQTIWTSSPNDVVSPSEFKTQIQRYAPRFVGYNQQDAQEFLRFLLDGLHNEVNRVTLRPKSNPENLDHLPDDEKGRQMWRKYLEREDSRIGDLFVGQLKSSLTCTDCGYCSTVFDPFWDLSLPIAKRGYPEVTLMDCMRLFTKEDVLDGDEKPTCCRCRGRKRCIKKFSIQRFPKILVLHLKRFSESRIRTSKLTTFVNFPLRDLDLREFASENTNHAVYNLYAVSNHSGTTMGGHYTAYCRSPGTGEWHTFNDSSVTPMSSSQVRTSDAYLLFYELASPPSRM
Structure (SMILES),IC50 (USP2),IC50 (DEN1),IC50 (cathepsin K),IC50 (USP7),IC50 (UCHL1),IC50 (caspase 3),half-life longer than that of 15g [1],improvement in antiviral activity compared to 15g [2],EC50 [3],IC50 (USP20)
"C[C@H](c1cccc2ccccc12)N1CCC(C(=O)NCc2ccc(F)cc2)CC1 [3j, (R)-N-(4-Fluorobenzyl)-1-(1-(naphthalen-1-yl)ethyl)piperidine-4-carboxamide]",> 100 µM,> 100 µM,> 100 µM,> 100 µM,> 100 µM,> 100 µM,–,–,–,–
"COc1cc(CNC(=O)C2CCN([C@H](C)c3cccc4ccccc34)CC2)ccn1 [5c, (R)-N-((2-Methoxypyridin-4-yl)methyl)-1-(1-(naphthalen-1-yl)ethyl)piperidine-4-carboxamide]",–,–,–,–,–,–,4-5 fold,–,–,–
"C[C@H](c1cccc2ccccc12)N1CCC(C(=O)NCc2cccc(F)c2)CC1 [3k, (R)-N-(3-Fluorobenzyl)-1-(1-(naphthalen-1-yl)ethyl)piperidine-4-carboxamide]",> 100 µM,> 100 µM,> 100 µM,> 100 µM,> 100 µM,> 100 µM,–,2 fold,–,–
"CC(=O)Nc1cccc(CNC(=O)C2CCN([C@H](C)c3cccc4ccccc34)CC2)c1 [3e, (R)-N-(3-Acetamidobenzyl)-1-(1-(naphthalen-1-yl)ethyl)piperidine-4-carboxamide]",–,> 100 µM,> 100 µM,–,> 100 µM,> 100 µM,4-5 fold,–,–,–
"C[C@H](c1cccc2ccccc12)N1CCC(C(=O)NCc2ccc3c(c2)OCO3)CC1 [15g, reference compound]",> 100 µM,> 100 µM,> 100 µM,> 100 µM,> 100 µM,> 100 µM,–,–,9.1 µM,> 100 µM
